Test results as given in ChEMBL document CHEMBL1128541 (J Med Chem, 1995).

Tests used:
[1] = molecular target: cGMP-specific 3',5'-cyclic phosphodiesterase (Homo sapiens, UniProt O76074); test: Inhibitory activity against phosphodiesterase 5 from human platelets
[2] = molecular target: Phosphodiesterase 3 (Homo sapiens, UniProt Q14432+Q13370); test: Inhibition of human platelet Phosphodiesterase 3
[3] = molecular target: T1, cGMP-dependent 3',5'-cyclic phosphodiesterase (Rattus norvegicus, UniProt Q01062); test: Inhibition of rat brain Phosphodiesterase 2
T1 sequence (Q01062 whole entry): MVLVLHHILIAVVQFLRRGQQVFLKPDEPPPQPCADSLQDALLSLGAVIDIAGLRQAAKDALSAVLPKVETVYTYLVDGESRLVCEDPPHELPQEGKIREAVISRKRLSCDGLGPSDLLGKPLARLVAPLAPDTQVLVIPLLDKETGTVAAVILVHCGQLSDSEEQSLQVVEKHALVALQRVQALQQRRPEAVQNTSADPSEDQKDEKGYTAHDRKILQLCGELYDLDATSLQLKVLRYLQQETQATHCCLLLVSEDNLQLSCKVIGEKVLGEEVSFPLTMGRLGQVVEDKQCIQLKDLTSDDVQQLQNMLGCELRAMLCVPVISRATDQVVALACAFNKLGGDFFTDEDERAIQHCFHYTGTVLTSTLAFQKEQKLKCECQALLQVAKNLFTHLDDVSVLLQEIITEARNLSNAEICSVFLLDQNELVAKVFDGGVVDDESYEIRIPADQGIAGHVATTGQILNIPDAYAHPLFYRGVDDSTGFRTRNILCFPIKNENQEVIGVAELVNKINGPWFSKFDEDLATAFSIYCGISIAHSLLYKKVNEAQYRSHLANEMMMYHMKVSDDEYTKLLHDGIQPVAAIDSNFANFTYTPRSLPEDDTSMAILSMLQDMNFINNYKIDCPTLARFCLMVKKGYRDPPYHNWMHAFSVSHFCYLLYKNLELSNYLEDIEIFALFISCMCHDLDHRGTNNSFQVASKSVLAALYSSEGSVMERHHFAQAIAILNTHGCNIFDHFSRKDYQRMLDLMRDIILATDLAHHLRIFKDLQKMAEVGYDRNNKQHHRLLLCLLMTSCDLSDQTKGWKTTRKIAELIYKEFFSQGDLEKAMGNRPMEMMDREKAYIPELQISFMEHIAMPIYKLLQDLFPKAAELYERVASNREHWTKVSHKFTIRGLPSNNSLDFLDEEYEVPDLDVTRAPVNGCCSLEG

[4] = molecular target: Phosphodiesterase 1 (Bos taurus, UniProt Q01061+P14100); test: Inhibition of bovine aorta Phosphodiesterase 1; type: protein assay
[5] = molecular target: Phosphodiesterase 4 (Rattus norvegicus, UniProt P14270+P14646+P14644+P54748); test: Inhibition of rat kidney Phosphodiesterase 4; type: protein assay
[6] = molecular target: Cyclooxygenase (Homo sapiens, UniProt P35354+P23219); test: Inhibitory activity against Prostaglandin G/H synthase; type: protein assay
[7] = species: Rattus norvegicus; test: Ex vivo inhibition of Thromboxane B2 production in A-23,187-Induced Rat Whole Blood; type: functional
[8] = species: Rattus norvegicus; test: In vitro inhibition of Thromboxane B2 production in A-23,187-Induced Rat Whole Blood; type: functional
[9] = molecular target: T2, Thromboxane-A synthase (Homo sapiens, UniProt P24557); test: In vitro inhibition of Thromboxane A2 synthase in human platelet
T2 sequence (P24557 whole entry): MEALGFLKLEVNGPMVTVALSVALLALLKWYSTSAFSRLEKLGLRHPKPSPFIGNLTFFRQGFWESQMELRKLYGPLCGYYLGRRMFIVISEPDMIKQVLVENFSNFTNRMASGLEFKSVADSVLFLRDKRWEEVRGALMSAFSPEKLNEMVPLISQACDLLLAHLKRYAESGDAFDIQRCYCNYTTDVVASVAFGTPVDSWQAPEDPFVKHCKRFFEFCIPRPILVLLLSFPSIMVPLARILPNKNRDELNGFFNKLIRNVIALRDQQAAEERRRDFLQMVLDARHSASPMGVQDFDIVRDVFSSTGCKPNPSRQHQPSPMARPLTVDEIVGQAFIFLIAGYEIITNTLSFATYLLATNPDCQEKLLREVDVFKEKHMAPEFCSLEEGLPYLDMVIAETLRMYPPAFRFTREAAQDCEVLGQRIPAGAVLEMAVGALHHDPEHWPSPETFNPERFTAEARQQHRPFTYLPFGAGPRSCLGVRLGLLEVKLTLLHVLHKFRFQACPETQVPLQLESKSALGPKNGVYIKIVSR

[10] = species: Homo sapiens; test: In vitro inhibition of Thromboxane A2 synthesis in human platelet; type: functional

Row | IC50 [1] [nM] | Structure (SMILES) | further results
1 | 165 | Fc1ccc2nc(-c3cccnc3)nc(NCc3ccccc3)c2c1 | 
2 | 2800 | c1cncc(CNc2nc(-c3cccnc3)nc3ccccc23)c1 | 
3 | 360 | c1cncc(-c2nc(NCc3cccs3)c3ccccc3n2)c1 | 
4 | 4300 | CCOC(=O)CCCNc1nc(-c2ccccc2)nc2ccccc12 | 
5 |  | CCCOc1ccccc1-c1nc2[nH]nnc2c(=O)[nH]1 [ZAPRINAST] | IC50 [2]: 660000 nM; IC50 [3]: 100000 nM; IC50 [4]: 68000 nM
6 | 210 | c1csc(CNc2nc(-n3ccnc3)nc3ccccc23)c1 | 
7 | 1300 | C(=C\c1nc(NCc2ccccc2)c2ccccc2n1)/c1ccccc1 | 
8 | 26 | Cl.Cl.Clc1ccc2nc(-c3cccnc3)nc(NCc3ccccc3)c2c1 | IC50 [2]: > 50000 nM; IC50 [3]: > 50000 nM; IC50 [4]: > 50000 nM; IC50 [5]: > 50000 nM
9 | 420 | O=[N+]([O-])c1cccc(Nc2nc(-c3ccccc3)nc3ccccc23)c1 | 
10 | 5000 | c1cncc(-c2nc(NCC3CCCO3)c3ccccc3n2)c1 (stereo not given) | 
11 | 540 | c1ccc(CCNc2nc(-c3cccnc3)nc3ccccc23)cc1 | 
12 | 15000 | OCCCCCNc1nc(-c2ccccc2)nc2ccccc12 | 
13 | 1900 | c1ccc(CCNc2nc(-c3ccccc3)nc3ccccc23)cc1 | 
14 | 11000 | c1ccc(CNc2nc(C3CCCCC3)nc3ccccc23)cc1 | 
15 | 630 | c1coc(CNc2nc(-n3ccnc3)nc3ccccc23)c1 | 
16 |  | Cl.Cl.Clc1ccc2nc(-n3ccnc3)nc(NCc3ccccc3)c2c1 | IC50 [2]: > 3000 nM; IC50 [3]: > 3000 nM; IC50 [4]: > 3000 nM; IC50 [5]: > 3000 nM
17 | 4600 | Clc1nc(NCc2ccccc2)c2ccccc2n1 | 
18 | 5500 | Clc1ccccc1Nc1nc(-c2ccccc2)nc2ccccc12 | 
19 | 1000 | Clc1cccc(Nc2nc(-c3ccccc3)nc3ccccc23)c1 | 
20 | 310 | c1ccc(CNc2nc(-c3ccncc3)nc3ccccc23)cc1 | IC50 [2]: > 100000 nM; IC50 [6]: 14000 nM; IC50 [3]: 17000 nM; IC50 [4]: 7000 nM; IC50 [5]: 7500 nM; ED50 [7]: 11 mg/kg; IC50 [8]: 1800 nM; IC50 [9]: 830 nM

Row | IC50 [1] [nM] | Structure (SMILES) | further results
21 | 2300 | c1ccc(Nc2nc(-c3ccco3)nc3ccccc23)cc1 | 
22 | 13000 | c1ccc(-c2nc(Nc3cccnc3)c3ccccc3n2)cc1 | 
23 | 450 | c1ccc(CNc2nc(-c3cccnc3)nc3ccccc23)cc1 | IC50 [2]: > 100000 nM; IC50 [6]: 50000 nM; IC50 [3]: 19000 nM; IC50 [4]: 21000 nM; IC50 [5]: 9000 nM; ED50 [7]: > 30 mg/kg; IC50 [8]: > 10000 nM; IC50 [9]: 5800 nM
24 | 800 | Clc1cccc(CNc2nc(-c3ccccc3)nc3ccccc23)c1 | 
25 | 18500 | c1ccc(COc2nc(-c3ccccc3)nc3ccccc23)cc1 | 
26 | 320 | c1ccc(CNc2nc(-c3ccccc3)nc3ccccc23)cc1 | IC50 [2]: > 100000 nM; IC50 [3]: 24000 nM; IC50 [4]: 22500 nM; IC50 [5]: 8200 nM
27 |  | O=C(O)/C=C/c1ccc(Cn2ccnc2)cc1 [OZAGREL] | IC50 [10]: 3300 nM
28 | 480 | Fc1ccc2c(NCc3ccccc3)nc(-c3cccnc3)nc2c1 | 
29 | 800 | Clc1ccccc1CNc1nc(-c2ccccc2)nc2ccccc12 | 
30 | 14 | CSc1ccc2nc(-n3ccnc3)nc(NCc3ccccc3)c2c1 | 
31 | 860 | COC(=O)c1ccc(Nc2nc(-c3ccccc3)nc3ccccc23)cc1 | 
32 | 2150 | Clc1ccc(Nc2nc(-c3ccccc3)nc3ccccc23)cc1 | 
33 | 16 | COc1ccc2nc(-n3ccnc3)nc(NCc3ccccc3)c2c1.Cl.Cl | IC50 [2]: 2000 nM; IC50 [3]: > 3000 nM; IC50 [4]: 2800 nM; IC50 [5]: 3300 nM; ED50 [7]: 2.6 mg/kg; IC50 [8]: 830 nM; IC50 [9]: 2500 nM
34 | 2.6 | O=[N+]([O-])c1ccc2nc(-n3ccnc3)nc(NCc3ccccc3)c2c1 | 
35 | 105 | Cc1ccc2nc(-c3cccnc3)nc(NCc3ccccc3)c2c1 | 
36 | 760 | COc1cccc(Nc2nc(-c3ccccc3)nc3ccccc23)c1 | 
37 | 4700 | c1ccc(-c2nc(NCc3ccco3)c3ccccc3n2)cc1 | 
38 | 22000 | CN1CCN(c2nc(NCc3ccccc3)c3ccccc3n2)CC1 | 
39 | 720 | c1ccc(CNc2nc(-c3cccs3)nc3ccccc23)cc1 | IC50 [2]: > 100000 nM; IC50 [3]: 21000 nM; IC50 [4]: 13000 nM; IC50 [5]: 7600 nM
40 | 190 | COC(=O)c1cccc(Nc2nc(-c3ccccc3)nc3ccccc23)c1 | 

Row | IC50 [1] [nM] | Structure (SMILES) | further results
41 | 2500 | c1ccc(CNc2nc(-c3ccco3)nc3ccccc23)cc1 | 
42 | 120 | Clc1ccc2nc(-c3cccnc3)nc(NCc3ccco3)c2c1 | 
43 | 14000 | CN(Cc1ccccc1)c1nc(-c2ccccc2)nc2ccccc12 | 
44 | 230 | c1ccc2c(NCC3CCCCC3)nc(-n3ccnc3)nc2c1 | 
45 | 2.3 | Brc1ccc2nc(-n3ccnc3)nc(NCc3ccccc3)c2c1 | 
46 | 10 | Cl.Cl.O=[N+]([O-])c1ccc2nc(-c3cccnc3)nc(NCc3ccccc3)c2c1 | IC50 [2]: > 3000 nM; IC50 [3]: > 3000 nM; IC50 [4]: > 3000 nM; IC50 [5]: > 3000 nM
47 | 8800 | c1ccc(-c2nc(NCC3CCCO3)c3ccccc3n2)cc1 (stereo not given) | 
48 | 20000 | CN(c1ccccc1)c1nc(-c2ccccc2)nc2ccccc12 | 
49 | 2400 | c1ccc(-c2nc(NC3CCCC3)c3ccccc3n2)cc1 | 
50 | 4400 | c1cncc(-c2nc(NCC3CC3)c3ccccc3n2)c1 | 
51 | 860 | c1ccc(CCNc2nc(-n3ccnc3)nc3ccccc23)cc1 | 
52 | 11000 | c1ccc(-c2nc(NCc3ccccn3)c3ccccc3n2)cc1 | 
53 | 260 | c1ccc(CNc2nc(-n3ccnc3)nc3ccccc23)cc1 | IC50 [2]: 50000 nM; IC50 [6]: 51000 nM; IC50 [3]: 25000 nM; IC50 [4]: 14000 nM; IC50 [5]: 3100 nM; ED50 [7]: 5.7 mg/kg; IC50 [8]: 1100 nM; IC50 [9]: 220 nM
54 | 110 | CS(=O)(=O)c1ccc2nc(-n3ccnc3)nc(NCc3ccccc3)c2c1 | 
55 | 740 | Clc1ccc(CNc2nc(-c3ccccc3)nc3ccccc23)cc1 | 
56 | 2400 | c1ccc(Nc2nc(-c3cccs3)nc3ccccc23)cc1 | 
57 | 8600 | c1ccc(-c2nc(NCc3cccnc3)c3ccccc3n2)cc1 | 
58 | 72 | COc1ccc2nc(-n3ccnc3)nc(NCc3ccco3)c2c1 | 
